{"source": "patent US11452674B2", "about": "“Non-solvent dental adhesive composition” (KURARAY NORITAKE DENTAL INC., priority 2017, dated 2022)"}
{"assay": "Solubility in water at 25° C.", "conditions": "25° C.", "units": {"Solubility in water at 25° C.": "mg/mL"}}
{"smiles": "Cc1cc(C)c(C(=O)P(=O)(O)C(=O)c2c(C)cc(C)cc2C)c(C)c1", "note": "[BAPO-ONa, sodium bis(2,4,6-trimethylbenzoyl)phosphine oxide]", "Solubility in water at 25° C.": 60}
{"smiles": "CC12CCC(C(=O)C1=O)C2(C)C", "note": "(stereo not drawn) [CQ, d1-camphorquinone]", "Solubility in water at 25° C.": 1.7}
{"smiles": "Cc1cc(C)c(C(=O)P(=O)(c2ccccc2)c2ccccc2)c(C)c1", "note": "[TMDPO, 2,4,6-trimethylbenzoykliphenylphosphine oxide, reference compound]", "Solubility in water at 25° C.": "< 1"}
{"assay": "Solubility in water at 25° C.", "conditions": "25 °C", "units": {"solubility": "mg/mL"}}
{"smiles": "Cc1cc(C)c(C(=O)P(=O)(O)c2ccccc2)c(C)c1", "note": "[Li-TPO, lithium (2,4,6-trimethylbenzoyl)phenylphosphine oxide]", "solubility": 45}
{"assay": "Solubility in water at 25° C.", "conditions": "25 °C, Solubility in water at 25° C.", "units": {"solubility": "mg/mL"}}
{"smiles": "COCCOCCOCC(=O)Nc1c(C)cc(C)c(C(=O)P(=O)(C(=O)c2c(C)cc(C)c(NC(=O)COCCOCCOC)c2C)c2ccccc2)c1C", "note": "[BAPO-A1, reference compound]", "solubility": "< 10"}
{"smiles": "Cc1cc(C)c(C(=O)P(=O)(O)c2ccccc2)c(C)c1", "note": "[Na-TPO]", "solubility": 28}
{"smiles": "Cc1cc(C)c(C(=O)P(=O)(O)C(=O)c2c(C)cc(C)cc2C)c(C)c1", "note": "[BAPO-OLi, lithium bis(2,4,6-trimethylbenzoyl)phosphine oxide]", "solubility": 52}
{"smiles": "Cc1cc(C)c(C(=O)P(=O)(C(=O)c2c(C)cc(C)cc2C)c2ccccc2)c(C)c1", "note": "[BAPO, bis(2,4,6-trimethylbenzoyl)phenylphosphine oxide, reference compound]", "solubility": "< 1"}
{"smiles": "COCCOCCOC(=O)Nc1c(C)cc(C)c(C(=O)P(=O)(c2ccccc2)c2ccccc2)c1C", "note": "[TMDPO-A1, reference compound]", "solubility": "< 10"}
